Consider 2 molecules from patent publication US7056498B2, “Composition containing aminophenol derivative, use thereof, and process for dissolving aminophenol derivative” (L'Oreal, priority 1999, dated 2006).

Structures are written as SMILES.

Common to all, as to assay type: physicochemical
Data set [1] can be described thus: Amount of aminophenol derivative dissolved in various solubilizing agents. As to the method: The amount of aminophenol derivative (N-ethyloxyearbonyl-4-para-aminophenol, or EPAP, and N-cholesteryloxyearbonyl-4-para-aminophenol, or CPAP) which can be dissolved in various solubilizing agents, at 60° C., was compared in Tables 1 and 2 below.
A short description of data set [2]: Storage stability of the compositions for two months (viscosity, colour, odour, HPLC content, crystals). Particulars: two months at room temperature and at 45° C. As to the method: After storage for two months at room temperature and at 45° C., no change in the viscosity or colour of the composition and no release of odour were observed.
The nature of data set [3]: Amount of aminophenol derivative dissolved in various solubilizing agents. Particulars: in caprylic/capric triglycerides, at room temperature.
[4] abbreviates: in apricot kernel oil, at 60° C.
Setting [5] is: in mixture of oxyethylenated (26 EO) oxypropylenated (26 PO) butyl alcohol and oxyethylenated (40 EO) hydrogenated castor oil.
Setting [6] is: in oxyethylenated (7 EO) hydrogenated castor oil, at 60° C.
Setting [7] is: in oxyethylenated (20 EO) oxypropylenated (5 PO) cetyl alcohol, at 60° C.
[8] abbreviates: in oxyethylenated (20 EO) sorbitan monostearate, at 60° C.
Setting [9] is: in oxyethylenated (40 EO) hydrogenated castor oil, at 60° C.
The mark [10] stands for this setting: in oxyethylenated (60 EO) hydrogenated castor oil, at 60° C.
Where [11] appears, read: in composition of Example 2 (fluid emulsion).
Setting [12] is: in composition of Example 3 (bleaching fluid).
Where [13] appears, read: in composition of Example 1 (fluid emulsion).

As to `CC(C)CCC[C@@H](C)[C@H]1CC[C@H]2[C@@H]3CC=C4C[C@@H](OC(=O)Nc5ccc(O)cc5)CC[C@]4(C)[C@H]3CC[C@]12C` [CPAP, N-cholesteryloxycarbonyl-4-para-aminophenol], the Amount dissolved in data set [1] (in Laureth-4, at 60° C.) is listed as 4.8%; in data set [1] (in Laureth-23, at 60° C.) it was 4.8%; in data set [1] (setting [4]) it was “insoluble”; in data set [1] (in caprylic/capric triglycerides, at 60° C.) it was 0.5%; in data set [1] (in hexyldecanol, at 60° C.), “insoluble”; in data set [1] (in mineral oil, at 60° C.), “insoluble”. For the same molecule, the Amount dissolved in data set [1] (setting [5]) was determined as 14.2%; in data set [1] (in octyldodecanol, at 60° C.) it was 0.5%; in data set [1] (setting [6]) it was 12.5%; in data set [1] (setting [7]), 14.2%; in data set [1] (setting [8]) it was 14.2%; in data set [1] (setting [9]), 16.5%. Besides, the Amount dissolved in data set [1] (setting [10]) was found to be 16.5%. For the same molecule, the “Decrease in compound content, as determined by HPLC” value in data set [2] (setting [11]) and in data set [2] (setting [12]) was “no decrease” in each case. Further, the “Formation of crystals of the compound” value in data set [2] (setting [11]) and in data set [2] (setting [12]) was “no formation of crystals” each time.
For `CCOC(=O)Nc1ccc(O)cc1` [EPAP, N-ethyloxycarbonyl-4-para-aminophenol], the Amount dissolved in data set [1] (in Laureth-4, at 60° C.) is reported as 25%; in data set [1] (setting [4]) it was “insoluble”; in data set [1] (in caprylic/capric triglycerides, 80° C.), 4.7% (80° C.);; in data set [1] (in hexyldecanol, at 60° C.), “insoluble”; in data set [1] (in mineral oil, at 60° C.), “insoluble”; in data set [1] (in mixture of oxyethylenated (9 EO) tridecyl alcohol and oxyethylenated (40 EO) hydrogenated castor oil), 25%. The Amount dissolved in data set [1] (setting [5]) is 20%; in data set [1] (in octyldodecanol, at 60° C.) it was “insoluble”; in data set [1] (setting [6]), 16.6%; in data set [1] (setting [7]), 16.5%; in data set [1] (setting [8]) it was 50%; in data set [1] (setting [9]), 16.5%. This molecule came in with an Amount dissolved in data set [1] (setting [10]) of 16.5%. Also, in data set [2] (setting [13]), the “Decrease in compound content, as determined by HPLC” value is reported as “no decrease”. Further, the “Formation of crystals of the compound” value in data set [2] (setting [13]) is given as “no formation of crystals”. For the same molecule, the Recrystallization after dissolution entry in data set [3] is recorded as “recrystallizes”.
